Test results published in patent publication US20220016251A1, “LYMPHATIC MEDIATED TRANSPORT-BASED TRIGLYCERIDE PRODRUG, AND PREPARATION METHOD THEREFOR” (SHENYANG PHARMACEUTICAL UNIVERSITY, priority 2019, published 2022).
In brackets after ≈: the same amount, converted by molar mass. Where two headings read alike, the source gives them in different places.

Key:
[1] = In vivo intestinal perfusion in rats
Excerpt: The intestinal permeability of a docetaxel-triglyceride prodrug is investigated by in vivo intestinal perfusion in rats. […] In order to investigate the effect of intestinal pancreatic lipase digestion on the absorption of the prodrug, a pancreatic lipase inhibitor orlistat is administrated half an hour in advance.

in vivo = assay: in vivo
Procedure: Taking SD rats as a model, a docetaxel-triglyceride prodrug emulsion and a docetaxel solution are orally administered; a plasma concentration of a parent drug is measured; and a drug-time curve is drawn and corresponding pharmacokinetic parameters are calculated respectively based on the measured concentration (Table 2). In order to calculate the absolute bioavailability, a docetaxel solution is administered intravenously, and the content of docetaxel in the plasma is measured.
In addition, in order to investigate whether the docetaxel-triglyceride prodrug is transported through the lymphatics, one hour before oral administration of the DTX-S-S-TG and the docetaxel solution, […] is administered intraperitoneally to inhibit the release of chylomicrons. The effect of lymphatic transport on the absorption of the prodrug is investigated.

4T1 cells = assay: cells; format: cell-based; conditions: Mus musculus
Excerpt: (§1) In order to investigate the tumor reduction-sensitive release of DTX-S-S-TG, 4T1 cells and KB cells are used as models to investigate the cytotoxicity of DTX-5C-TG, a DTX-S-S-TG emulsion and a docetaxel solution. […] Due to a reduction-sensitive dithio linking bridge, DTX-S-S-TG has higher drug release efficiency than DTX-5C-TG, which is linked by insensitive ester bonds. As a result, the cytotoxicity of DTX-S-S-TG is stronger than that of DTX-5C-TG. Meanwhile, due to the slow release of a sensitive prodrug, DTX-S-S-TG has lower cytotoxicity than the docetaxel solution.

KB cells = assay: cells; format: cell-based; conditions: Homo sapiens
Excerpt: as §1

4T1 tumor = format: in vivo; conditions: oral, 4T1 tumor-bearing Balb/c mice
Excerpt: It reminds us that a good pharmacodynamic result not only requires a significant pharmacokinetic result, but also that a specific release at a tumor site is very important.

[2] = mouse, in vivo
Excerpt: For 5 consecutive days, normal Balb/c mice are orally administered with the docetaxel-triglyceride prodrug emulsion synthesized in Example 4, and docetaxel solution, and intravenously injected with a docetaxel solution, and a normal saline group is used as control. The gastrointestinal toxicity is then investigated.

pancreatic lipase = assay: Digestion in bile-pancreatic juice simulated intestinal juice; format: in vitro ADME; conditions: 37° C.
Procedure: (§2) Emulsions prepared in Example 5 are incubated in simulated gastric juice, bile-pancreatic juice simulated intestinal juice, and lipoprotein lipase-containing plasma at 37° C., respectively; and samples are taken at predetermined time points to investigate the physical stability of the prodrug emulsion and the chemical stability of the prodrug in different media.

[3] = Stability in lipoprotein lipase-containing plasma; format: in vitro ADME; conditions: plasma added with lipoprotein lipase, after continuous incubation
Procedure: as §2

| Compound | effect of pancreatic lipase inhibitor orlistat on absorption ([1]; rat, in vivo) | Fabs (in vivo; SD, rat, in vivo) [%] | AUC(0-t) (in vivo; SD, rat, in vivo, po) [µg·h/mL] | Cmax (in vivo; SD, rat, in vivo, po) [µg/mL] | Frel (in vivo; SD, rat, in vivo, po) [%] | Tmax (in vivo; SD, rat, in vivo, po) [h] | half-life (in vivo; SD, rat, in vivo, po) [h] | effect of cyclophosphamide (lymphatic suppression) on oral absorption / AUC (in vivo; rat, in vivo) | IC50 (4T1 cells; 48 h, read-out: IC50 4T1 48 h) [ng/mL] | IC50 (4T1 cells; 72 h, read-out: IC50 4T1 72 h) [ng/mL] | IC50 (KB cells; 48 h, read-out: IC50 KB 48 h) [ng/mL] | IC50 (KB cells; 72 h, read-out: IC50 KB 72 h) [ng/mL] | anti-tumor effect (4T1 tumor) | gastrointestinal toxicity (injury to intestinal segments) ([2]; iv) | gastrointestinal toxicity (injury to intestinal segments) ([2]; po) | degradation into docetaxel-monoglyceride prodrugs in intestinal juice (pancreatic lipase) | release of docetaxel parent drug in plasma [3] | permeability coefficient Ka, increase compared with docetaxel solution ([1]; in vivo intestinal perfusion in rats) [times] | blood concentration (in vivo; oral, SD rats) | oral bioavailability improved versus docetaxel (in vivo; rat, in vivo, po) |
| --- | --- | --- | --- | --- | --- | --- | --- | --- | --- | --- | --- | --- | --- | --- | --- | --- | --- | --- | --- | --- |
| CC(=O)O[C@@]12CO[C@@H]1C[C@H](O)[C@@]1(C)C(=O)[C@H](O)C3=C(C)[C@@H](OC(=O)[C@H](O)[C@@H](NC(=O)OC(C)(C)C)c4ccccc4)C[C@@](O)([C@@H](OC(=O)c4ccccc4)[C@H]21)C3(C)C [DTX Solution, docetaxel] | no significant effect | 9.4 | 0.168 ± 0.125 | 0.021 ± 0.0068 | 100 | 0.4 ± 0.5 | 11.8 ± 8.4 | no significant difference in AUC | 16.6 (≈ 20.5 nM) | 5.9 (≈ 7.3 nM) | 4.9 (≈ 6.07 nM) | 1.3 (≈ 1.61 nM) | almost no anti-tumor effect | injury to respective intestinal segments | slight injury to the jejunum |  |  |  |  |  |
| CCCCCCCCCCCCCCCC(=O)OCC(COC(=O)CCCCCCCCCCCCCCC)OC(=O)C(CCC(=O)O[C@@H](C(=O)O[C@H]1C[C@@]2(O)[C@@H](OC(=O)c3ccccc3)[C@@H]3[C@]4(OC(C)=O)CO[C@@H]4C[C@H](O)[C@@]3(C)C(=O)[C@H](O)C(=C1C)C2(C)C)[C@@H](NC(=O)OC(C)(C)C)c1ccccc1)OC(=O)C(C)(C)C (some centres unmarked) [DTX-5C(Piv)-TG, Docetaxel-C5(Piv)-Triglyceride Prodrug] |  |  |  |  |  |  |  |  |  |  |  |  |  |  |  | relatively slow degradation rate | hardly releases the docetaxel parent drug | 1.15 | lower than a detection limit |  |
| Docetaxel-C5(Et)-Triglyceride Prodrug [DTX-5C(Et)-TG] |  |  |  |  |  |  |  |  |  |  |  |  | certain anti-tumor effect |  |  | relatively slow degradation rate | release the drug slowly |  |  | 1.05-4.71 times |
